Where two headings read alike, the source gives them in different places.
Experiments:
[1] = system: LoVo (human colon adenocarcinoma); experiment: MTS cytotoxicity assay, LoVo cells; assay type: cell-based; conditions: 48 h of incubation
Description: (§1) For the evaluation of the cytotoxic effects of the complexes and ligand two human cancer cell lines were used, namely MDA-MB 231 (human breast adenocarcinoma) and LoVo (human colon adenocarcinoma); a normal cell line, human umbilical vein endothelial cells (HUVEC), was used as a reference. […] After 24 h and 48 h, respectively, cell viability was evaluated through MTS assay (data shown in Figures S16–S18) and the IC50 values were calculated (Table 5). The cytotoxicity assay is based on the ability of metabolically active cells to reduce MTS, a yellow tetrazolium salt, to the colored formazan, soluble in the culture medium; the concentration of formazan can be spectrophotometrically determined. […] PES is a cationic dye with high chemical stability that binds to MTS and forms a stable solution. […] The reduced MTS to formazan was spectrophotometrically measured at λ = 492 nm. The test was run on two cancer cell lines, LoVo and MDA-MB 231, and on a normal cell line, HUVEC. […] Cell viability data were obtained in triplicate (n = 3) and expressed as mean values ± standard deviations (SD). […] All assays were performed in 96-well microtiter plates with flat bottom (Falcon), using CellTiter 96 Aqueous One Solution Cell Proliferation Assay (Promega), an MTS-based colorimetric assay. The formazan was spectrophotometrically measured using the Tecan GENios Spectrophotometer.

[2] = system: HUVEC (normal human umbilical vein endothelial cells); experiment: MTS cytotoxicity assay, HUVEC normal cells; assay type: cell-based; conditions: 48 h of incubation
Description: as §1

[3] = system: MDA-MB 231 (human breast adenocarcinoma); experiment: MTS cytotoxicity assay, MDA-MB 231 cells; assay type: cell-based
Description: as §1

[4] = biological target: T1, Human serum albumin (HSA) (Homo sapiens, UniProt P02768); experiment: Fluorescence quenching of human serum albumin; conditions: for n (Hill Coefficient), HSA / n (Number of Binding Sites), HSA / Ksv (Stern-Volmer constant), HSA / Kq (bimolecular quenching constant), HSA / fa (fraction of fluorophore accessible to the quencher), HSA / Kd / Ka (association binding constant), HSA: 298 K; for Ksv (Stern-Volmer constant), HSA / quenching effect on HSA fluorescence peak: 2.5 µM HSA; for Ksv (Stern-Volmer constant), HSA: 0–8 µM compound, pH 7.4; for Kq (bimolecular quenching constant), HSA: from KSV = Kq τ0; for fa (fraction of fluorophore accessible to the quencher), HSA: modified Stern-Volmer; for Kd: HSA; for quenching effect on HSA fluorescence peak: compound up to 8 µM, λex 280 nm
[5] = biological target: T2, Apo-transferrin (apo-Tf) (Homo sapiens, UniProt P02787); experiment: Fluorescence quenching of apo-transferrin; assay type: binding; conditions: for n (Hill Coefficient), apo-Tf / n (Number of Binding Sites), apo-Tf / Ksv (Stern-Volmer constant), apo-Tf / Kq (bimolecular quenching constant), apo-Tf / fa (fraction of fluorophore accessible to the quencher), apo-Tf / Kd / Ka (association binding constant), apo-Tf: 298 K; for Ksv (Stern-Volmer constant), apo-Tf / quenching effect on apo-Tf fluorescence peak: 1 µM apo-Tf; for Ksv (Stern-Volmer constant), apo-Tf: 0–8 µM compound, pH 7.4; for Kq (bimolecular quenching constant), apo-Tf: from KSV = Kq τ0; for fa (fraction of fluorophore accessible to the quencher), apo-Tf: modified Stern-Volmer; for quenching effect on apo-Tf fluorescence peak: compound up to 8 µM, λex 295 nm
T2 construct: purchased Sigma Aldrich Chemical Co. (Schnelldorf, Germany)

[6] = system: EB-DNA system (CT-DNA); experiment: Competitive binding assay with ethidium bromide (EB) through fluorescence spectroscopy; parameters: species or system calf; conditions: 10 µM CT-DNA, 2 µM EB; for Ksv (Stern-Volmer quenching constant, EB-DNA system): 0–40 µM compound, λex 500 nm; for K50 (EB Displacement Assay): concentration corresponding to 50% binding
From the text: The manner of binding to the DNA macromolecule can be investigated through competitive binding studies with ethidium bromide (3,8-diamino-5-ethyl-6-phenylphenanthridinium bromide), a fluorescent dye; due to its aromatic ring, it can intercalate between two adjacent base pairs in the DNA structure and form a complex which emits fluorescent light; displacing EB results in a quenching effect. The Stern-Volmer constant (KSV) and the dissociation constant (K50) have been calculated from the resulting data.
Competitive binding studies were carried out on a Jasco FP 6500 fluorometer at room temperature, using quartz cells of 1 cm path-length. The fluorescence spectra were recorded on 1.6 mL samples containing 10 µM CT-DNA and 2 µM EB in the absence and presence of increasing amounts (0–40 µM with an increment of 5 µM) of complexes and free ligands, respectively, after being kept in contact for 10 min at room temperature, under continuous stirring and in the dark. The excitation wavelength used was 500 nm and the spectra was recorded in the 520–800 nm range. Two control samples were used, the first one containing DMSO, DNA and EB and the second one just the complex.
Data from the assay can be interpreted using the classical Stern-Volmer equation (Equation (3)):(3) F0/F=1+ KSV·[Q] where F0 and F are the fluorescence intensities of the EB-DNA samples in the absence and presence of the tested compounds and [Q] is the concentration of the compound; KSV is the Stern-Volmer constant and can be calculated from the plot of F0/F vs. [Q] as the slope.
The ratio of binding relative to the control sample exposed only to DMSO was plotted against the logarithm of concentration. The data points were fitted using the modified Hill function with offset (Origin®) (Equation (4)):(4) y=A1+(A2−A1)×x^n/K50^n+x^n where y is the ratio of binding (F/F0) and x is the concentration, A1 is the minimum of y values, A2 is the maximum of y values, K50 is the concentration corresponding to 50% binding and n is the Hill coefficient.

[7] = biological target: T1, Human serum albumin (HSA)
[8] = Homo sapiens, MDA-MB-231, 48 h of incubation

T1 sequence (P02768 25-609): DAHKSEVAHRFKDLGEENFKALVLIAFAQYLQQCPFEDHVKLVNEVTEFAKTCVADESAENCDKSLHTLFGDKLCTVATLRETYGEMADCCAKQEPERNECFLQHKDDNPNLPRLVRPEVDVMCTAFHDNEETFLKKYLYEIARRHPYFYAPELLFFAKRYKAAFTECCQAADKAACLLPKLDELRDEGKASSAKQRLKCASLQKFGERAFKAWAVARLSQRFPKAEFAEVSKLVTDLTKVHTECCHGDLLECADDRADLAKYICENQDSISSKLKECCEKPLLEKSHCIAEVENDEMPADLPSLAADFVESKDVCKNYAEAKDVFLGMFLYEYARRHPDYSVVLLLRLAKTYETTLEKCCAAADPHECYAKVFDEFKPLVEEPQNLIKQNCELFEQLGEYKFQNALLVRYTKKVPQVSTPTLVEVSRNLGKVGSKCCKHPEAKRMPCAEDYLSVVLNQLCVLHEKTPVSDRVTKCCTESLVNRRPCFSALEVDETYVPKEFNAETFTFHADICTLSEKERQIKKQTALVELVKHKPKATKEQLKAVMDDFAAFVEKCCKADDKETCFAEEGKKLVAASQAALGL
T2 sequence (P02787 20-698): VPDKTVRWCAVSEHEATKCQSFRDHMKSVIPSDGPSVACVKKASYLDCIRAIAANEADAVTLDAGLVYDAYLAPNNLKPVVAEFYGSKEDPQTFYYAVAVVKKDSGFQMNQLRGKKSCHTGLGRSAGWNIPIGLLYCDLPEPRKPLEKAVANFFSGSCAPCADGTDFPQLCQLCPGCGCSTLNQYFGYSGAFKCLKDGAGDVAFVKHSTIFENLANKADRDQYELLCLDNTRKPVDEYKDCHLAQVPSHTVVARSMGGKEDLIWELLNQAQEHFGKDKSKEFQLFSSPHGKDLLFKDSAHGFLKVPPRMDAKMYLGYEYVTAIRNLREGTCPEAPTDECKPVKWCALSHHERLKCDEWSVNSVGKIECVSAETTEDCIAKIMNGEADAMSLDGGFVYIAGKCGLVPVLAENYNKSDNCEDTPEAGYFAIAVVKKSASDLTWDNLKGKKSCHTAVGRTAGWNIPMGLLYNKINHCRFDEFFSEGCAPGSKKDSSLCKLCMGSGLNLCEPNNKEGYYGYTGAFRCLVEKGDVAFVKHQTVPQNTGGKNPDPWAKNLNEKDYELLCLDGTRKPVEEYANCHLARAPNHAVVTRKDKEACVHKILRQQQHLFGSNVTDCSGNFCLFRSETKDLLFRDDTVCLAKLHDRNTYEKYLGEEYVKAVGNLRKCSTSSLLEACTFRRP

## N.N.[Cl][Pt][Cl] [Cis-Pt, Cisplatin, reference compound]
[1]
  IC50: 40.1 ± 13.9 µM
[2]
  IC50: 28.5 ± 6.28 µM

## CCn1cc(C(=O)O)c(=O)c2cc3c(cc21)OCO3 [oxo, 5-ethyl-5,8-dihydro-8-oxo-l,3 dioxolo[4,5-g]quinoline-7-carboxylic acid, reference compound]
[3]; [8]
  IC50: 43.5 ± 4.94 µM
[4]
  n (Hill Coefficient), HSA: 1.62 ± 0.39
  n (Number of Binding Sites), HSA: 0.90 ± 0.01
  Ksv (Stern-Volmer constant), HSA: (1.95 ± 0.38) × 10^4 M^−1
  Kq (bimolecular quenching constant), HSA: 1.95e+12 M⁻¹ s⁻¹
  fa (fraction of fluorophore accessible to the quencher), HSA: 1.92 ± 0.35
[4]; listed as oxolinic acid
  Ksv (Stern-Volmer constant), HSA: 1.95 (± 0.38) × 10^4 M^−1
[4]; Ka (association binding constant)
  Kd: 92.6 µM
[4]; Kd
  Kd: 7.26 ± 2.66 µM
[5]
  n (Hill Coefficient), apo-Tf: 1.89 ± 1.35
  n (Number of Binding Sites), apo-Tf: 0.67 ± 0.00
  Ksv (Stern-Volmer constant), apo-Tf: (17.45 ± 0.95) × 10^4 M^−1
  Kq (bimolecular quenching constant), apo-Tf: 1.745e+13 M⁻¹ s⁻¹
  fa (fraction of fluorophore accessible to the quencher), apo-Tf: 0.36±0.01
[5]; Kd, apo-Tf
  Kd: 8.11 ± 7.34 µM
[1]; Homo sapiens, LoVo
  IC50: > 200 µM
[6]
  Ksv (Stern-Volmer quenching constant, EB-DNA system): (1.05 ± 0.02) × 10^4
  K50 (EB Displacement Assay): 42.07 ± 18.48 µM
[2]; Homo sapiens, HUVEC
  IC50: > 200 µM

## [Gd(oxo)(OH)(H2O)]·0.5H2O [Gd oxo]
[3]; 48 h of incubation
  IC50: 73.8 ± 18.5 µM
[4]
  quenching effect on HSA fluorescence peak: ~ 47%
  Ka (association binding constant), HSA: (1.98 ± 0.82) × 10^5 M^−1
  n (Hill Coefficient), HSA: 1.81 ± 0.26
  n (Number of Binding Sites), HSA: 1.06 ± 0.03
  Ksv (Stern-Volmer constant), HSA: (5.77 ± 0.84) × 10^4 M^−1
  Kq (bimolecular quenching constant), HSA: 5.77e+12 M⁻¹ s⁻¹
  fa (fraction of fluorophore accessible to the quencher), HSA: 1.39 ± 0.15
[5]
  Ka (association binding constant), apo-Tf: (0.58 ± 0.25) × 10^4 M^−1
  n (Hill Coefficient), apo-Tf: 1.24 ± 0.45
  n (Number of Binding Sites), apo-Tf: 0.76 ± 0.03
  Ksv (Stern-Volmer constant), apo-Tf: (17.51 ± 1.06) × 10^4 M^−1
  Kq (bimolecular quenching constant), apo-Tf: 1.751e+13 M⁻¹ s⁻¹
  fa (fraction of fluorophore accessible to the quencher), apo-Tf: 0.73 ± 0.02
[5]; read-out: Kd, apo-Tf
  Kd: 8.8 ± 6.57 µM
[7]
  Kd: 5.32 ± 0.69 µM
[1]
  IC50: 56.5 ± 3.83 µM
[6]
  Ksv (Stern-Volmer quenching constant, EB-DNA system): (1.18 ± 0.01) × 10^4
  K50 (EB Displacement Assay): 47.75 ± 25.22 µM
[2]
  IC50: > 200 µM

## COc1cccc2c1C(=O)c1c(O)c3c(c(O)c1C2=O)C[C@@](O)(C(=O)CO)C[C@@H]3O[C@H]1C[C@H](N)[C@H](O)[C@H](C)O1 [ADR, adriamycin, reference compound]
[3]; [8]
  IC50: 7.85 ± 0.7 µM

## [Tb(oxo)(OH)(H2O)] · 0.5 H2O [Tb oxo]
[3]; 48 h of incubation
  IC50: > 200 µM
[4]
  quenching effect on HSA fluorescence peak: 52.63%
  Ka (association binding constant), HSA: 6.83(±1.33) × 10^5 M^−1
  n (Hill Coefficient), HSA: 1.58 ± 0.20
  n (Number of Binding Sites), HSA: 1.18 ± 0.01
  Ksv (Stern-Volmer constant), HSA: (2.84 ± 0.70) × 10^4 M^−1
  Kq (bimolecular quenching constant), HSA: 2.84e+12 M⁻¹ s⁻¹
  fa (fraction of fluorophore accessible to the quencher), HSA: 2.13 ± 0.45
[4]; listed as Tb-oxo
  Ka (association binding constant), HSA: (6.83 ± 1.33) × 10^5 M^−1
[5]
  quenching effect on apo-Tf fluorescence peak: 47.62%
  Ka (association binding constant), apo-Tf: (1.28 ± 0.17) × 10^4 M^−1
  n (Hill Coefficient), apo-Tf: 1.57 ± 0.33
  n (Number of Binding Sites), apo-Tf: 0.81 ± 0.01
  Ksv (Stern-Volmer constant), apo-Tf: 19.45 (± 1.10) × 10^4 M^−1
  Kq (bimolecular quenching constant), apo-Tf: 1.945e+13 M⁻¹ s⁻¹
  fa (fraction of fluorophore accessible to the quencher), apo-Tf: 0.77 ± 0.01
[5]; listed as Tb-oxo
  Ksv (Stern-Volmer constant), apo-Tf: (19.45 ± 1.10) × 10^4 M^−1
[5]; read-out: Kd, apo-Tf
  Kd: 5.57 ± 1.22 µM
[7]
  Kd: 5.97 ± 0.89 µM
[1]
  IC50: 40.6 ± 7.43 µM
[6]
  Ksv (Stern-Volmer quenching constant, EB-DNA system): (1.18 ± 0.00) × 10^4
  K50 (EB Displacement Assay): 20.28 ± 1.15 µM
[2]
  IC50: > 200 µM

## CCn1cc(C(=O)[O][Y]([OH])[O]C(=O)c2cn(CC)c3cc4c(cc3c2=O)OCO4)c(=O)c2cc3c(cc21)OCO3.O [Y oxo, [Y(oxo)(OH)(H2O)]]
[3]; 48 h of incubation
  IC50: 33.2 ± 14.9 µM
[4]
  Ka (association binding constant), HSA: (2.04 ± 0.74) × 10^5 M^−1
  n (Hill Coefficient), HSA: 1.52 ± 0.47
  n (Number of Binding Sites), HSA: 1.44 ± 0.03
  Ksv (Stern-Volmer constant), HSA: (10.53 ± 0.95) × 10^4 M^−1
  Kq (bimolecular quenching constant), HSA: 1.053e+13 M⁻¹ s⁻¹
  fa (fraction of fluorophore accessible to the quencher), HSA: 1.07 ± 0.05
[5]
  quenching effect on apo-Tf fluorescence peak: 35%
  Ka (association binding constant), apo-Tf: 4.40(±1.09) × 10^4 M^−1
  n (Hill Coefficient), apo-Tf: 1.58 ± 0.23
  n (Number of Binding Sites), apo-Tf: 0.94 ± 0.01
  Ksv (Stern-Volmer constant), apo-Tf: 6.52 (± 0.56) × 10^4 M^−1
  Kq (bimolecular quenching constant), apo-Tf: 6.52e+12 M⁻¹ s⁻¹
  fa (fraction of fluorophore accessible to the quencher), apo-Tf: 1.15 ± 0.07
[5]; listed as Y-oxo
  Ksv (Stern-Volmer constant), apo-Tf: (6.52 ± 0.56) × 10^4 M^−1
  Ka (association binding constant), apo-Tf: (4.40 ± 1.09) × 10^4 M^−1
[5]; read-out: Kd, apo-Tf
  Kd: 8.34 ± 1.71 µM
[7]
  Kd: 6.3 ± 2.47 µM
[1]
  IC50: 90.4 ± 9.3 µM
[6]
  Ksv (Stern-Volmer quenching constant, EB-DNA system): 8.38 (±0.29) × 10^3
  K50 (EB Displacement Assay): 28.07 ± 4.44 µM
[6]; listed as Y-oxo
  Ksv (Stern-Volmer quenching constant, EB-DNA system): (8.38 ± 0.29) × 10^3
[2]
  IC50: > 200 µM

— paper PMC7699381, “Rare-Earth Metal Complexes of the Antibacterial Drug Oxolinic Acid: Synthesis, Characterization, DNA/Protein Binding and Cytotoxicity Studies” (Molecules, 2020)
